Test results taken from patent US20250313535A1, “ALPHA 4 BETA 7 INTEGRIN MODULATORS AND USES THEREOF” (DICE MOLECULES SV, INC., priority 2022, published 2025).
Where two headings read alike, the source gives them in different places.

Experiments:
α4β7 integrin = α4β7 integrin (Homo sapiens (Human), UniProt P13612+P26010); assay: Integrin Adhesion Assay: Protocol 4 (MAdCAM-coated plate, RPMI-8866 cells with stable LOF mutation of the ITGB1 gene); format: cell-based
Procedure, shortened: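 RPMI-8866 cells with CRISPR/Cas9 knockout of ITGB1 (2×10^6/mL) were added to MAdCAM-coated wells with compound (1% DMSO) in HEPES/NaCl buffer with 1 mM MnCl2, 0.1 mM CaCl2 and 1% BSA, then incubated 1 h at 37 °C. After four washes, adherent cells were quantified by CellTiter-Glo luminescence. Percent inhibition versus DMSO and control compound was fitted to 4-parameter curves.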

α4β1 integrin = α4β1 integrin (Homo sapiens (Human), UniProt P05556+P13612); assay: Integrin Adhesion Assay: Protocol 5 (VCAM-coated plate, RPMI-8866 cells with stable LOF mutation of the ITGB7 gene); format: cell-based
Procedure, shortened: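 RPMI-8866 B cells with CRISPR/Cas9 ITGB7 knockout (clonal, verified by flow cytometry) adhered to VCAM-coated wells for 1 h at 37° C in HEPES/NaCl buffer with 1 mM MnCl2, 0.1 mM CaCl2, 1% BSA, 1% DMSO. Bound cells quantified by CellTiter-Glo luminescence after washing; % inhibition versus DMSO and control, 4-parameter fit.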

[1] = RPMI-8866 cells with stable LOF mutation of the ITGB1 gene, read-out: Mean IC50 α4β7 KO^a
[2] = RPMI-8866 cells with stable LOF mutation of the ITGB7 gene, read-out: Mean IC50 α4β1 KO^b
[3] = Protocol 4, RPMI-8866 cells with LOF mutation of ITGB1, MAdCAM, read-out: Mean IC50 α4β7 KO
[4] = Protocol 5, RPMI-8866 cells with LOF mutation of ITGB7, VCAM, read-out: Mean IC50 α4β1 KO

α4β7 integrin, sequence (P13612 34-1032): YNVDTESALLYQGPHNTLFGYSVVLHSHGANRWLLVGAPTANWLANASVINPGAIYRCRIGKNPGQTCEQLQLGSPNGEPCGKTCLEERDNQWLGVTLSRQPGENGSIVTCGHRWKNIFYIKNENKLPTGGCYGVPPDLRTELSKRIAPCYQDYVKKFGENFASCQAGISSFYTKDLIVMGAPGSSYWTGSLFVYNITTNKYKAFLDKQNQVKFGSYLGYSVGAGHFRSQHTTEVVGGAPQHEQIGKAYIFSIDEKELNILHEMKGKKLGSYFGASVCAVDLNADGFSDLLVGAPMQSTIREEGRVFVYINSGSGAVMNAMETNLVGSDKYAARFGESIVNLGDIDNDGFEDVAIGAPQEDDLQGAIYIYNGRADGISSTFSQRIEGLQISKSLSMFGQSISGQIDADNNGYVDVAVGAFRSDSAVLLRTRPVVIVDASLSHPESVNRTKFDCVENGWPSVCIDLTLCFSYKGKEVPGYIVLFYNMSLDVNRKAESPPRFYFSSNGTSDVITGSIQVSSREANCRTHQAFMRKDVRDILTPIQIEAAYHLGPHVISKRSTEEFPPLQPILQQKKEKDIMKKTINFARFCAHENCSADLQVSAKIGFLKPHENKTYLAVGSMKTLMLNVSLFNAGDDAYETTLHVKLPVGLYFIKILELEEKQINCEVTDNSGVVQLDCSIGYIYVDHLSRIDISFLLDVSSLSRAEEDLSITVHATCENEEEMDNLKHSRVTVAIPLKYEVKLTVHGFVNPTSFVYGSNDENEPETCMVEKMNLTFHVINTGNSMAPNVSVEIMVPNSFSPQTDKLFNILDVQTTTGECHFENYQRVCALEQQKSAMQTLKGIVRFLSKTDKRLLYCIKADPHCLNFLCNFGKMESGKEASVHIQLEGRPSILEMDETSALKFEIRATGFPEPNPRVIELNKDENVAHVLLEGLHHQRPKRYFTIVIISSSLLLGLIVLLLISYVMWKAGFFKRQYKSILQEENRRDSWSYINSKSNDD
α4β7 integrin, sequence (P26010 20-798): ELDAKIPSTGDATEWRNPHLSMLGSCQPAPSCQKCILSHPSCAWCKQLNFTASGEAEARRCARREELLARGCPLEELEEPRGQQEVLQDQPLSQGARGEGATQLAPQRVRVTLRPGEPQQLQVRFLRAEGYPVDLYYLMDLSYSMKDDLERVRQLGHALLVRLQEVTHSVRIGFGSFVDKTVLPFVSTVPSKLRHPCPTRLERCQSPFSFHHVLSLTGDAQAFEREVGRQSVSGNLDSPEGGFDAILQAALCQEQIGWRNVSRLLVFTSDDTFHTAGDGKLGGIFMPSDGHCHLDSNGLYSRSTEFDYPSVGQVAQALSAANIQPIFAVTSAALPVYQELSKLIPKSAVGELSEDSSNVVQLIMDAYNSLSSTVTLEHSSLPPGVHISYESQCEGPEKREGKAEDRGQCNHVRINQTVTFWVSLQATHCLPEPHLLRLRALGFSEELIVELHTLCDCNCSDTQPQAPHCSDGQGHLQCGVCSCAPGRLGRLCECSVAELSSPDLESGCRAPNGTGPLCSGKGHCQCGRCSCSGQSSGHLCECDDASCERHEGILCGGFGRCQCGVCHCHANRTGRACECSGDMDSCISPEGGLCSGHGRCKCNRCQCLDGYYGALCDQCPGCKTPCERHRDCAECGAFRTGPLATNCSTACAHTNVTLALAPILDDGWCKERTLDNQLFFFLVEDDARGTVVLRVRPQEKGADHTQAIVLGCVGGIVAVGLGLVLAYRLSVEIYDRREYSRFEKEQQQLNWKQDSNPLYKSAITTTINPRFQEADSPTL
α4β1 integrin, sequence (P13612 34-1032): as the sequence (P13612 34-1032) above
α4β1 integrin, sequence (P05556 21-798): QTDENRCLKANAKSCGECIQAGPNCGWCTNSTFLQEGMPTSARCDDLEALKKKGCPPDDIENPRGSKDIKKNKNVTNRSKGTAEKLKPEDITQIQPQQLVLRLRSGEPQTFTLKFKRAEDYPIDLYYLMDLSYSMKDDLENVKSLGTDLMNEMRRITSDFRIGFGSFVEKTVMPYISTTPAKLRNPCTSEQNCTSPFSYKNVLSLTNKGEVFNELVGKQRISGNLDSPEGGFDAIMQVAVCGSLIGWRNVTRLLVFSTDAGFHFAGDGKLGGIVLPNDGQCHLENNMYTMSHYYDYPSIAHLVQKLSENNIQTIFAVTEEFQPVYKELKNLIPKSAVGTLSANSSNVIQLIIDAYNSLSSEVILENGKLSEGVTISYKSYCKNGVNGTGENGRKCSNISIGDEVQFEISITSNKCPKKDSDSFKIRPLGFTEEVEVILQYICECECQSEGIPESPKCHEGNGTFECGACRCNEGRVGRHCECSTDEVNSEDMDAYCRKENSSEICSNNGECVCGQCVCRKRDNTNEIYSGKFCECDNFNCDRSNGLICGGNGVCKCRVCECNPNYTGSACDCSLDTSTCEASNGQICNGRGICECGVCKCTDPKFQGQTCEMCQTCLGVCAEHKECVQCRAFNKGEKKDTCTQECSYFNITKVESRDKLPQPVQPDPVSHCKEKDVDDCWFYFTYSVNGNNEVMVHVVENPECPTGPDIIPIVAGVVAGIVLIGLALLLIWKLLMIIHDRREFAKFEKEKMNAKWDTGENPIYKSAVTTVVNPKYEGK

Row | IC50 (α4β7 integrin; [1]) | IC50 (α4β1 integrin; [2]) | IC50 (α4β7 integrin; [3]) | IC50 (α4β1 integrin; [4]) | SMILES
1 | < 10 nM | 100 to 1000 nM | – | – | COc1ccc(CN2CCCC(C)C2)c(OC)c1-c1cccc2c(C[C@H](NC(=O)c3c(C)cccc3F)C(=O)O)cccc12 (stereo partly drawn) [Compound 643]
2 | < 10 nM | 100 to 1000 nM | – | – | CN1CCCC1c1cc(-c2cccc3c(C[C@H](NC(=O)C4(C(F)(F)F)CCN(C5COC5)CC4)C(=O)O)cccc23)c2cnccc2c1 (stereo partly drawn) [Compound 644]
3 | < 10 nM | > 1000 nM | – | – | COc1ccc(CN(C)C)c(OC)c1-c1cccc2c(C[C@H](NC(=O)c3c(F)cccc3C3CC3)C(=O)O)cccc12 [Compound 645]
4 | 100 to 1000 nM | > 1000 nM | – | – | COc1ccc(CN2CCCCC2)c(OC)c1-c1cccc2c(C[C@H](NC(=O)c3c(F)cccc3C#N)C(=O)O)cccc12 [Compound 646]
5 | < 10 nM | 100 to 1000 nM | – | – | COc1cccc(F)c1C(=O)N[C@@H](Cc1cccc2c(-c3c(OC)ccc(CN4CCCCC4)c3OC)cccc12)C(=O)O [Compound 647]
6 | < 10 nM | > 1000 nM | – | – | COc1ccc(CN2CCCCC2)c(OC)c1-c1cccc2c(C[C@H](NC(=O)c3c(F)cccc3-c3ccccc3)C(=O)O)cccc12 [Compound 648]
7 | < 10 nM | 100 to 1000 nM | – | – | CCc1cccc(F)c1C(=O)N[C@@H](Cc1cccc2c(-c3c(OC)ccc(CN4CCCCC4)c3OC)cccc12)C(=O)O [Compound 649]
8 | < 10 nM | 100 to 1000 nM | – | – | COc1ccc(CN2CCOCC2)c(OC)c1-c1cccc2c(C[C@H](NC(=O)c3c(C)cccc3F)C(=O)O)cccc12 [Compound 650]
9 | < 10 nM | 100 to 1000 nM | – | – | COc1ccc(CN2C[C@@H](C)O[C@@H](C)C2)c(OC)c1-c1cccc2c(C[C@H](NC(=O)c3c(C)cccc3F)C(=O)O)cccc12 [Compound 651]
10 | < 10 nM | 100 to 1000 nM | – | – | COc1ccc(CN2CCC(CF)CC2)c(OC)c1-c1cccc2c(C[C@H](NC(=O)c3c(C)cccc3F)C(=O)O)cccc12 [Compound 652]
11 | < 10 nM | 100 to 1000 nM | – | – | COc1ccc(CN2CCCC(F)(F)CC2)c(OC)c1-c1cccc2c(C[C@H](NC(=O)c3c(C)cccc3F)C(=O)O)cccc12 [Compound 653]
12 | < 10 nM | > 1000 nM | – | – | COc1ccc(CN2CCC3(CCCCC3)CC2)c(OC)c1-c1cccc2c(C[C@H](NC(=O)c3c(C)cccc3F)C(=O)O)cccc12 [Compound 654]
13 | < 10 nM | > 1000 nM | – | – | COc1ccc(CN2CCC3(CCOC3)CC2)c(OC)c1-c1cccc2c(C[C@H](NC(=O)c3c(C)cccc3F)C(=O)O)cccc12 [Compound 655]
14 | < 10 nM | 100 to 1000 nM | – | – | COc1ccc(CN2CCN(C3CCC3)CC2)c(OC)c1-c1cccc2c(C[C@H](NC(=O)c3c(C)cccc3F)C(=O)O)cccc12 [Compound 656]
15 | < 10 nM | > 1000 nM | – | – | COc1ccc(CN2CC(OC(C)(C)C)C2)c(OC)c1-c1cccc2c(C[C@H](NC(=O)C3(C(F)(F)F)CCN(CC(F)(F)F)CC3)C(=O)O)cccc12 [Compound 657]
16 | < 10 nM | 100 to 1000 nM | – | – | COc1ccc(CN2CCC(C)(C)CC2)c(C(F)(F)F)c1-c1cccc2c(C[C@H](NC(=O)c3c(C)cccc3F)C(=O)O)cccc12 [Compound 658]
17 | 10 to 100 nM | > 1000 nM | – | – | CC(C)(C)C1CCN(Cc2cccc3c(-c4cccc5c(C[C@H](NC(=O)C6(C(F)(F)F)CCN(CC(F)(F)F)CC6)C(=O)O)cccc45)nccc23)CC1 [Compound 659]
18 | 10 to 100 nM | > 1000 nM | – | – | O=C(O)[C@H](Cc1cccc2c(-c3nccc4c(CN5CCOC(C(F)(F)F)C5)cccc34)cccc12)NC(=O)C1(C(F)(F)F)CCN(CC(F)(F)F)CC1 (stereo partly drawn) [Compound 660]
19 | 10 to 100 nM | > 1000 nM | – | – | O=C(O)[C@H](Cc1cccc2c(-c3nccc4c(CN5CCC6(CCCCC6)CC5)cccc34)cccc12)NC(=O)C1(C(F)(F)F)CCN(CC(F)(F)F)CC1 [Compound 661]
20 | 10 to 100 nM | > 1000 nM | – | – | COc1c(CN2CCCCC2)ccc(C(F)(F)F)c1-c1cccc2c(C[C@H](NC(=O)C3(C(F)(F)F)CCN(CC(F)(F)F)CC3)C(=O)O)cccc12 [Compound 662]
21 | 100 to 1000 nM | > 1000 nM | – | – | COc1ccc(CN2CCC(F)(F)CC2)c(OC)c1-c1cccc2c(C[C@H](NC(=O)c3c(C)cc4cn(CC(F)(F)F)nc4c3F)C(=O)O)cccc12 [Compound 664]

Row | IC50 (α4β7 integrin; [1]) | IC50 (α4β1 integrin; [2]) | IC50 (α4β7 integrin; [3]) | IC50 (α4β1 integrin; [4]) | SMILES
22 | < 10 nM | 100 to 1000 nM | – | – | COc1ccc(CN2CCCCC2)c(OC)c1-c1cccc2c(C[C@H](NC(=O)c3c(F)cccc3Br)C(=O)O)cccc12 [Compound 665]
23 | 10 to 100 nM | > 1000 nM | – | – | COc1cc(CN2CCCCC2)ccc1-c1cccc2c(C[C@H](NC(=O)c3c(C)cccc3F)C(=O)O)cccc12 [Compound 666]
24 | 10 to 100 nM | > 1000 nM | – | – | COc1ccc(CN2CCCCC2)cc1-c1cccc2c(C[C@H](NC(=O)c3c(C)cccc3F)C(=O)O)cccc12 [Compound 667]
25 | < 10 nM | > 1000 nM | – | – | COc1ccc(CN2CCC(F)(F)CC2)c(OC)c1-c1cccc2c(C[C@H](NC(=O)C3(C(F)(F)F)CCN([C@@H]4COC[C@@H]4F)CC3)C(=O)O)cccc12 [Compound 668]
26 | < 10 nM | > 1000 nM | – | – | COc1ccc(CN2CCC(F)(F)CC2)c(OC)c1-c1cccc2c(C[C@H](NC(=O)C3(C(F)(F)F)CCN([C@H]4COC[C@@H]4F)CC3)C(=O)O)cccc12 [Compound 669]
27 | 10 to 100 nM | 100 to 1000 nM | – | – | COc1ccc(CN2CCC(F)(F)CC2)c(OC)c1-c1cccc2c(C[C@H](NC(=O)C3(C(F)(F)F)CCN([C@@H]4COC[C@H]4F)CC3)C(=O)O)cccc12 [Compound 670]
28 | < 10 nM | 100 to 1000 nM | – | – | COc1ccc(CN2CCC[C@H](F)C2)c(OC)c1-c1cccc2c(C[C@H](NC(=O)c3c(C)cccc3F)C(=O)O)cccc12 [Compound 671]
29 | < 10 nM | 100 to 1000 nM | – | – | COc1ccc(CN2CCC[C@@H](F)C2)c(OC)c1-c1cccc2c(C[C@H](NC(=O)c3c(C)cccc3F)C(=O)O)cccc12 [Compound 672]
30 | 10 to 100 nM | > 1000 nM | – | – | COc1cc2c(c(C(F)(F)F)c1-c1cccc3c(C[C@H](NC(=O)C4(C(F)(F)F)CCN(CC(F)(F)F)CC4)C(=O)O)cccc13)CCN(CC(F)(F)F)C2 [Compound 673]
31 | < 10 nM | 100 to 1000 nM | – | – | COc1cccc(CN2CCCCC2)c1-c1cccc2c(C[C@H](NC(=O)c3c(F)cccc3Cl)C(=O)O)cccc12 [Compound 674]
32 | < 10 nM | 100 to 1000 nM | – | – | COc1cccc(F)c1C(=O)N[C@@H](Cc1cccc2c(-c3c(CN4CCCCC4)cccc3OC)cccc12)C(=O)O [Compound 675]
33 | < 10 nM | > 1000 nM | – | – | CCC1(C(=O)N[C@@H](Cc2cccc3c(-c4ncc(CN5CCCCC5)c5ccccc45)cccc23)C(=O)O)CCN(CC(F)(F)F)CC1 [Compound 676]
34 | 10 to 100 nM | > 1000 nM | – | – | N#CC1(C(=O)N[C@@H](Cc2cccc3c(-c4ncc(CN5CCCCC5)c5ccccc45)cccc23)C(=O)O)CCN(CC(F)(F)F)CC1 [Compound 677]
35 | < 10 nM | 100 to 1000 nM | – | – | O=C(O)[C@H](Cc1cccc2c(-c3ncc(CN4CCCCC4)c4ccccc34)cccc12)NC(=O)C1(C(F)(F)F)CCN([C@H]2COCC2(F)F)CC1 [Compound 680]
36 | < 10 nM | 100 to 1000 nM | – | – | O=C(O)[C@H](Cc1cccc2c(-c3ncc(CN4CCCCC4)c4ccccc34)cccc12)NC(=O)C1(C(F)(F)F)CCN(C2CC(F)(F)C2)CC1 [Compound 681]
37 | < 10 nM | > 1000 nM | – | – | O=C(O)[C@H](Cc1cccc2c(-c3ncc(CN4CCCCC4)c4ccccc34)cccc12)NC(=O)C1(C(F)(F)F)CCN(CCC(F)(F)F)CC1 [Compound 682]
38 | < 10 nM | > 1000 nM | – | – | O=C(O)[C@H](Cc1cccc2c(-c3ncc(CN4CCCCC4)c4ccccc34)cccc12)NC(=O)C1(C(F)(F)F)CCN(CC2(C(F)(F)F)CC2)CC1 [Compound 683]
39 | – | – | < 10 nM | > 1000 nM | CC1(C(=O)N[C@@H](Cc2cccc3c(-c4ncc(CN5CCCCC5)c5ccccc45)cccc23)C(=O)O)CCN(CC(F)F)CC1 [Compound 687]
40 | – | – | 10 to 100 nM | > 1000 nM | Cc1cccc(F)c1C(=O)N[C@@H](Cc1cccc2c(-c3cc(CN4CCCCC4)ccn3)cccc12)C(=O)O [Compound 688]
41 | – | – | < 10 nM | 100 to 1000 nM | O=C(O)[C@H](Cc1cccc2c(-c3ncc(CN4CCC5(CC4)CC5)c4ccccc34)cccc12)NC(=O)C1(C(F)(F)F)CCN(C2COC2)CC1 [Compound 694]
42 | – | – | < 10 nM | > 1000 nM | CN(C)Cc1ccc(-c2cccc3c(C[C@H](NC(=O)C4(C(F)(F)F)CCN(CC(F)(F)F)CC4)C(=O)O)cccc23)c2cnccc12 [Compound 695]

Row | SMILES | IC50 (α4β7 integrin; [1]) | IC50 (α4β1 integrin; [2]) | IC50 (α4β7 integrin; [3]) | IC50 (α4β1 integrin; [4])
43 | CC1(C(=O)N[C@@H](Cc2cccc3c(-c4ncc(CN5CCCCC5)c5ccccc45)cccc23)C(=O)O)CC2CCC(C1)N2CC(F)(F)F (stereo partly drawn) [Compound 679] | 10 to 100 nM | > 1000 nM | – | –
44 | CC1(C(=O)N[C@@H](Cc2cccc3c(-c4ncc(CN5CCCCC5)c5ccccc45)cccc23)C(=O)O)CC2CCC(C1)N2CC(F)F (stereo partly drawn) [Compound 684] | 10 to 100 nM | > 1000 nM | – | –
45 | CC1(C(=O)N[C@@H](Cc2cccc3c(-c4ncc(CN5CCCCC5)c5ccccc45)cccc23)C(=O)O)CC2CCC(C1)N2C1COC1 (stereo partly drawn) [Compound 685] | 10 to 100 nM | > 1000 nM | – | –
